Where a name gives a salt, the structure may show the parent alone. Read-outs that look alike come from different tables or passages of the source.
Experiments:
Test in all cases: In vitro antibacterial activity (MIC)
Format in all cases: cell-based
[1] = system: C. diversus CDC 1663-72; conditions: Citrobacter koseri, CDC166372
Method: (§1) Drug dilutions are prepared in Mueller-Hinton broth ranging from 128 to 0.008 μg/ml. The diluted agents are dispensed in 100 μl amounts into the wells of a 96-well tray and used immediately or frozen at -10° to -70° C. until needed. Using an automated inoculator, 1.5 μl of a 10^-2 dilution of an overnight culture is added to each well of the tray. The tops of the trays are then sealed using transparent tape and incubated overnight at 37° C. The trays are examined with the aid of a viewer. The lowest concentration at which no growth is observed is considered to be the minimum inhibitory concentration (MIC).

[2] = system: C. freundii 8ASM; conditions: Citrobacter freundii, 8ASM
Method: as §1

[3] = system: C. freundii CDC6; conditions: Citrobacter freundii, CDC6, C. freundii CDC6; read-out: MIC
Method: as §1

[4] = system: E. aerogenes 503-478; conditions: Klebsiella aerogenes, 503478, E. aerogenes 503-478; read-out: MIC
Method: as §1

[5] = system: E. aerogenes 83
Method: as §1

[6] = system: E. cloacae 214; conditions: Enterobacter cloacae, 214, E. cloacae 214; read-out: MIC
Method: as §1

[7] = system: E. cloacae 5699; conditions: Enterobacter cloacae, 5699, E. cloacae 5699; read-out: MIC
Method: as §1

[8] = system: E. cloacae 9295; conditions: Enterobacter cloacae, 9295, E. cloacae 9295; read-out: MIC
Method: as §1

[9] = system: E. cloacae 9570A; conditions: Enterobacter cloacae
Method: as §1

[10] = system: E. cloacae P99; conditions: Enterobacter cloacae, P99, E. cloacae P99
Method: as §1

[11] = system: E. coli 387-1; conditions: Escherichia coli, 3871, E. coli 387-1; read-out: MIC
Method: as §1

[12] = system: E. coli 48; conditions: Escherichia coli, 48, E. coli 48; read-out: MIC
Method: as §1

[13] = system: E. coli 4; conditions: Escherichia coli, 4, E. coli 4; read-out: MIC
Method: as §1

[14] = system: E. coli 503-455; conditions: Escherichia coli, 503455, E. coli 503-455; read-out: MIC
Method: as §1

[15] = system: E. coli 5152
Method: as §1

[16] = system: E. coli R-563; conditions: Escherichia coli, R563, E. coli R-563; read-out: MIC
Method: as §1

[17] = system: K. pneumoniae 35
Method: as §1

[18] = system: K. pneumoniae 4964; conditions: Klebsiella pneumoniae, 4964
Method: as §1

[19] = system: K. pneumoniae 503-964
Method: as §1

[20] = system: K. pneumoniae 5096; conditions: Klebsiella pneumoniae; K. pneumoniae 5096; read-out: MIC
Method: as §1

[21] = system: P. aeruginosa 503-820; conditions: Pseudomonas aeruginosa, 503820; P. aeruginosa 503-820; read-out: MIC
Method: as §1

[22] = system: P. aeruginosa 5700; conditions: Pseudomonas aeruginosa, 5700, P. aeruginosa 5700; read-out: MIC
Method: as §1

[23] = system: P. aeruginosa 6148B; conditions: Pseudomonas aeruginosa, read-out: MIC
Method: as §1

[24] = system: P. aeruginosa 8710; conditions: Pseudomonas aeruginosa; P. aeruginosa 8710; read-out: MIC
Method: as §1

[25] = system: P. aeruginosa 8780; conditions: Pseudomonas aeruginosa; P. aeruginosa 8780; read-out: MIC
Method: as §1

[26] = system: P. mirabilis 190; conditions: Proteus mirabilis, 190, P. mirabilis 190; read-out: MIC
Method: as §1

[27] = system: P. mirabilis 620A; conditions: Proteus mirabilis, 620A, P. mirabilis 620A; read-out: MIC
Method: as §1

[28] = system: P. mirabilis 90; conditions: Proteus mirabilis, 90, P. mirabilis 90; read-out: MIC
Method: as §1

[29] = system: P. vulgaris 100; conditions: Proteus vulgaris
Method: as §1

[30] = system: P. vulgaris 101; conditions: Proteus vulgaris, 101, P. vulgaris 101; read-out: MIC
Method: as §1

[31] = system: S. faecalis C1; conditions: Enterococcus faecalis; S. faecalis C1; read-out: MIC
Method: as §1

[32] = system: S. marcescens S147; conditions: Serratia marcescens; S. marcescens S147; read-out: MIC
Method: as §1

[33] = system: S. marcescens S1; conditions: Serratia marcescens, S1, S. marcescens S1; read-out: MIC
Method: as §1

[34] = system: S. marcescens S2; conditions: Serratia marcescens; S. marcescens S2; read-out: MIC
Method: as §1

[35] = system: S. marcescens S3; conditions: Serratia marcescens; S. marcescens S3; read-out: MIC
Method: as §1

[36] = system: S. marcescens S4; conditions: Serratia marcescens, S4, S. marcescens S4; read-out: MIC
Method: as §1

[37] = system: S. marcescens S5; conditions: Serratia marcescens, S5, S. marcescens S5; read-out: MIC
Method: as §1

[38] = system: S. marcescens S714; conditions: Serratia marcescens, S714, S. marcescens S714; read-out: MIC
Method: as §1

[39] = system: S. pneumoniae 6301; conditions: Streptococcus pneumoniae, 6301, S. pneumoniae 6301; read-out: MIC
Method: as §1

[40] = system: S. pneumoniae 6302; conditions: Streptococcus pneumoniae, 6302, S. pneumoniae 6302; read-out: MIC
Method: as §1

[41] = system: S. pneumoniae SC; conditions: Streptococcus pneumoniae, read-out: MIC
Method: as §1

[42] = system: S. pyogenes 4; conditions: Streptococcus pyogenes, 4, S. pyogenes 4; read-out: MIC
Method: as §1

[43] = system: S. pyogenes 503-782; conditions: Streptococcus pyogenes, 503782; S. pyogenes 503-782; read-out: MIC
Method: as §1

[44] = system: S. schottmuelleri; conditions: read-out: MIC
Method: as §1

Measured: MIC

Cc1nccn1CCCC1CCN(C=N[C@@H]2C(=O)N3[C@@H]2SC(C)(C)[C@@H]3C(=O)O)CC1 [F, [2S-(2alpha,5alpha,6beta)]-3,3-dimethyl-6-[[[4-[3-(2-methyl-1H-imidazol-1-yl)propyl]-1-piperidinyl]methylene]amino]-7-oxo-4-thia-1-azabicyclo[3.2.0]heptane-2-carboxylic acid 1.15 molar hydrochloride 1.75 molar hydrate]
4 µg/mL: [4] | [19]; Klebsiella pneumoniae, 503964, K. pneumoniae 503-964
0.25 µg/mL: [7] | [8] | [9]; 9570A | [26] | [32] | [34] | [35]
64 µg/mL: [20]
32 µg/mL: [18]
0.062 µg/mL: [1]; C. diversus CDC 1663-72, read-out: MIC | [2]; C. freundii 8ASM, read-out: MIC | [3] | [12] | [13] | [16] | [44]
0.5 µg/mL: [22] | [28] | [33] | [42]
1 µg/mL: [37] | [38] | [39] | [41]
> 128 µg/mL: [21] | [23] | [24]
2 µg/mL: [14] | [36] | [40]
128 µg/mL: [31] | [43]
> 12 µg/mL: [25]
16 µg/mL: [5]; Klebsiella aerogenes, 83 | [27] | [29]; P. vulgaris 100, read-out: MIC | [30]
0.125 µg/mL: [6] | [10] | [11] | [17]; Klebsiella pneumoniae, K. pneumoniae 35, read-out: MIC
8 µg/mL: [15]; Escherichia coli, 5152, E. coli 5152, read-out: MIC

CCc1nc(C)cn1CCCC1CCN(C=N[C@@H]2C(=O)N3[C@@H]2SC(C)(C)[C@@H]3C(=O)O)CC1 [G, [2S-(2alpha,5alpha,6beta)]-6-[[[4-[3-(2-ethyl-4methyl-1H-imidazol-1-yl)propyl]piperidinyl]methylene]amino]-3,3-dimethyl-7-oxo-4-thia-1-azabicyclo[3.2.0]heptane-2-carboxylic acid hydrochloride]
0.5 µg/mL: [5]; Klebsiella aerogenes, 83, E. aerogenes 83, read-out: MIC | [7] | [8] | [9]; read-out: MIC | [10] | [17]; Klebsiella pneumoniae, 35, K. pneumoniae 35 | [26]
128 µg/mL: [20] | [31] | [43]
0.25 µg/mL: [3] | [6] | [11] | [13] | [16]
1 µg/mL: [22] | [28] | [32] | [33] | [34] | [35] | [39] | [41] | [42]
64 µg/mL: [27]
> 128 µg/mL: [21] | [23] | [24] | [25]
16 µg/mL: [15]; Escherichia coli, 5152 | [30]
4 µg/mL: [14]
0.125 µg/mL: [1] | [2] | [44]
2 µg/mL: [18] | [36] | [37] | [40]
8 µg/mL: [4] | [38]
32 µg/mL: [29]; 100
0.062 µg/mL: [12] | [19]; Klebsiella pneumoniae, 503964, K. pneumoniae 503-964, read-out: MIC

Source: patent publication US4605744A, “Imidazole derivatives” (Hoffmann-La Roche Inc., priority 1985, dated 1986)
